Experimental data reported in patent US6635437B2, “Compounds, compositions and methods for generating chemiluminescence with phosphatase enzymes” (Lumigen, Inc., priority 1996, dated 2003).

What was measured:
[1] = tested on: alkaline phosphatase (AP); assay: Chemiluminescent detection of alkaline phosphatase with acridan phosphate and surfactant enhancer; format: biochemical; details: for Rel. (S/B normalized to the results obtained with no enhancer) / S/B (ratio of light intensities with AP and with no enzyme): acridan 1 with 10^−16 mol of AP, each surfactant at the concentration producing the greatest enhancement; for S/B (ratio of maximum light intensity to light intensity in the absence of enzyme): 0.33 mM 1, 0.01 mg/mL Enhancer A
[2] = tested on: alkaline phosphatase (AP); assay: Chemiluminescent detection of alkaline phosphatase with acridan phosphate and cationic aromatic compound (CAC); format: biochemical; details: for S at 36 min (plateau intensity): 21 mM CAC in DMSO diluted 1:1000 into compound 5 in 0.1 M tris pH 8.8
[3] = tested on: AP-labeled antibody; assay: Western blot using nitrocellulose membrane; details: 0.33 mM 1, pH 9.6, 0.5 mg/mL Enhancer A
Method: A Western blot assay according to the procedures in Example 27 was performed using nitrocellulose membrane as the solid phase. Transferrin standards in the range of 5000-30 pg were used.

[4] = tested on: acid phosphatase (AcP); assay: Chemiluminescent detection of AcP by pH change; format: biochemical; details: 0.33 mM 1, tris pH 7.0, 0.1% BSA, 0.01% Enhancer A, 3 μL AcP, 8 min; 1 N NaOH injected, integrated 4 min
Method: An alternate way to detect the light emitted by reaction of AcP with 1 is to incubate a reagent composition containing 1 and enhancer with AcP at a first pH and then rapidly raise the pH by injecting a solution of a strong base to cause a burst of light emission. A reagent composition (100 μL) comprising 0.33 mM acridan phosphate 1 in 0.1 M tris buffer, pH 7.0, 0.1% BSA and 0.01% Enhancer A was reacted with 3 μL of AcP (Sigma AcP LIN-TROL, reconstituted to 2.0 mL, 83 U/L) for 8 min at ambient temperature in a test tube. A solution of 1 N NaOH (50 μL) was injected and light intensity integrated for 4 min.

[5] = tested on: acid phosphatase (AcP); assay: Chemiluminescent detection of acid phosphatase and inhibition by tartrate; format: biochemical
Method: The quenching of emission was not due to a reduction of the pH since addition of 10 μL of citrate buffer caused only a 25% reduction in light intensity.

[6] = tested on: AP-labeled antibody; assay: Western blot assay of human transferrin using PVDF membrane
Description: The chemiluminescent reaction of the present invention provides a particularly effective reagent for detection of AP conjugates on polyvinylidene difluoride (PVDF) membranes, nylon membranes and on nitrocellulose filters and membranes.
provides an intense luminescence which rises to a maximum level nearly instantly and maintains essentially constant intensity for at least 2 days. Detection on film and optimizing image intensity are thus particularly convenient.
Compositions of the present invention were used to detect and quantify a protein, human transferrin in a Western blot with an AP-labeled antibody on a polyvinylidene difluoride (PVDF) membrane. Dilutions of transferrin containing from 5000, 1000, 180, 30 and 5 pg, respectively, of protein were electrophoresed and transferred to PVDF membranes (Millipore, Bedford, Mass.). The transferrin bands were blocked with and then reacted sequentially with goat anti-human transferrin and rabbit anti-goat-AP conjugate. The membranes were soaked briefly with reagents comprising 0.2 M 221 buffer, pH 9.6 containing 0.88 mM MgCl2, 0.66 mM acridan phosphate 1 and 0.1 to 1 mg/mL of Enhancer A. The membranes were placed between transparent plastic sheets and exposed to X-ray film. […] The light produced using these compositions with varying amounts of the enhancer led to intense emission which could be imaged for at least 2 weeks. […]

[7] = 4×10^−16 mol AP, room temperature

Molecule: 1-trioctylphosphoniummethyl-4-tributylammonium-methylbenzene, mixed bromide chloride salt [Surfactant G]
- Rel. (S/B normalized to the results obtained with no enhancer) [1]: 4.5
- S/B (ratio of light intensities with AP and with no enzyme) [1]: 63

Molecule: 9-(2,6-Dimethylphenylthiophosphoryloxymethylidene)-10-methylacridan. disodium salt [Compound 9]
- S at 36 min (plateau intensity) [2, 7]: 781

Molecule: 9-(2′,2′,2′-Trifluoroethylthiophosphoryloxymethylidene)-10-methylacridan, disodium salt [Compound 11]
- S at 36 min (plateau intensity) [2, 7]: 9.3

Molecule: 9-(3,5-Dimethylphenoxy)phohosphoryloxymethylidene)-10-methylacridan. disodium salt [Compound 2]
- S at 36 min (plateau intensity) [2, 7]: 45.3

Molecule: 9-(4-Fluorophenylthiophosphoryloxymethylidene)-10-methylacridan, disodium salt [Compound 7]
- time to stable plateau of chemiluminescence intensity ([2]; 0.66 mM 7, 6.4 μM lucigenin, SDS, Na2SO3, TWEEN 20, tris pH 8.8, 8×10^−16 mol AP, room temperature): under 5 sec
- S at 36 min (plateau intensity) [2, 7]: 61.6

Molecule: 9-(4-Methoxyphenylthiophosphoryloxymethylidene)-10-methylacridan, disodium salt [Compound 8]
- S at 36 min (plateau intensity) [2, 7]: 19.1

Molecule: 9-(Phenylthiophosphoryloxymethylidene)-2,7-difluoro-10-methylacridan, disodium salt [Compound 10]
- S at 36 min (plateau intensity) [2, 7]: 21.1

Molecule: C[n+]1c2ccccc2c(-c2c3ccccc3[n+](C)c3ccccc23)c2ccccc21.O=[N+]([O-])[O-].O=[N+]([O-])[O-] [CAC 1, N,N′-dimethylbiacridinium dinitrate, reference compound]
- effect of lucigenin on light intensity ([2]; 6.4 μM lucigenin, 0.66 mM 5, 0.1 M tris pH 8.8, 8×10^−16 mol AP, 25° C.): much higher light intensity
- signal (S) versus control without lucigenin ([2]; 6.4 mM to 6.4 nM lucigenin, 0.66 mM 5, tris pH 8.8, 4×10^−16 mol AP, 3.5 min, room temperature): higher signal (S) than the control

Molecule: CN1c2ccccc2C(=C(Oc2ccccc2)OP(=O)([O-])[O-])c2ccccc21.[Na+].[Na+] [Compound 1, 9-(Phenoxyphosphoryloxymethylidene)-10-methylacridan, disodium salt]
- time to maximum chemiluminescence intensity ([1]; 0.33 mM 1, 0.1 M tris pH 8.5, 0.88 mM Mg, 0.01 mg/mL Enhancer A, 10^−13 mol AP, 25° C.): 2 min
- chemiluminescence on reaction with AP ([1]; composition of Example 14 (0.1 M tris pH 8.5, Enhancer A), AP, 25° C.): easily measurable blue chemiluminescence
- S/B (ratio of maximum light intensity to light intensity in the absence of enzyme) ([1]; pH 7.0, tris, 8×10^−16 mol AP, 25° C.): 37
- S/B (ratio of maximum light intensity to light intensity in the absence of enzyme) ([1]; pH 7.5, tris, 8×10^−16 mol AP, 25° C.): 144
- S/B (ratio of maximum light intensity to light intensity in the absence of enzyme) ([1]; pH 8.0, tris, 8×10^−16 mol AP, 25° C.): 273
- S/B (ratio of maximum light intensity to light intensity in the absence of enzyme) ([1]; pH 8.5, tris, 8×10^−16 mol AP, 25° C.): 280
- S/B (ratio of maximum light intensity to light intensity in the absence of enzyme) ([1]; pH 9.0, 221 buffer, 8×10^−16 mol AP, 25° C.): 200
- S/B (ratio of maximum light intensity to light intensity in the absence of enzyme) ([1]; pH 9.0, tris, 8×10^−16 mol AP, 25° C.): 195
- S/B (ratio of maximum light intensity to light intensity in the absence of enzyme) ([1]; pH 9.5, 221 buffer, 8×10^−16 mol AP, 25° C.): 87
- S/B (ratio of maximum light intensity to light intensity in the absence of enzyme) ([1]; pH 10.0, 221 buffer, 8×10^−16 mol AP, 25° C.): 13
- S/B (ratio of maximum light intensity to light intensity in the absence of enzyme) ([1]; pH 10.5, 221 buffer, 8×10^−16 mol AP, 25° C.): 1.3
- time to maximum chemiluminescence intensity ([1]; reagent composition of Example 14, 8×10^−16 mol AP, 25° C.): ca. 2 min
- period over which detection could be performed [3]: over several hours
- S at 36 min (plateau intensity) [2, 7]: 2602
- light intensity relative to reagent blank [4]: three times the reagent blank
- time course of chemiluminescence with AcP ([5]; 0.33 mM 1, 0.1 M tris pH 7, 0.01-0.1% Enhancer A, ambient temperature): reached maximum intensity nearly instantaneously and remained nearly constant for several minutes
- time for which emission could be imaged ([6]; 0.66 mM 1, 0.2 M 221 buffer pH 9.6, 0.1 to 1 mg/mL Enhancer A, PVDF): at least 2 weeks
- time for which luminescence maintains essentially constant intensity ([6]; antibody-AP conjugate on PVDF membrane): at least 2 days

Molecule: O=S([O-])[O-].[Na+].[Na+] [Na2SO3, sodium sulfite]
- background signal (B) in the absence of AP versus control ([2]; Na2SO3 1.0 mg/mL to 1.0 μg/mL in Reagent A): lower background signal (B)
- signal (S) versus control ([2]; Na2SO3 1.0 mg/mL to 1.0 μg/mL in Reagent A, 4×10^−16 mol AP, 3.5 min, room temperature): higher signal (S) than the control

Molecule: CCCCCCCC[P+](CCCCCCCC)(CCCCCCCC)Cc1ccc(C[P+](CCCC)(CCCC)CCCC)cc1.[Cl-].[Cl-] [Surfactant E, 1-trioctylphosphoniummethyl-4-tributylphosphonium-methylbenzene dichloride]
- Rel. (S/B normalized to the results obtained with no enhancer) [1]: 11.6
- S/B (ratio of light intensities with AP and with no enzyme) [1]: 162

Molecule: CCCCCCCCCCCCOS(=O)(=O)[O-].[Na+] [Surfactant H, sodium dodecyl sulfate]
- Rel. (S/B normalized to the results obtained with no enhancer) [1]: 1.9
- S/B (ratio of light intensities with AP and with no enzyme) [1]: 26
- rise to peak signal versus control without SDS ([2]; SDS 10 mg/mL to 10 μg/mL, 0.66 mM 5, tris pH 8.8, 4×10^−16 mol AP, room temperature): faster rise to peak signal

Molecule: CCCCCCCCCCCCCCCC[N+](C)(C)C.[Br-] [Surfactant I, cetyltrimethylammonium bromide]
- Rel. (S/B normalized to the results obtained with no enhancer) [1]: 1.7
- S/B (ratio of light intensities with AP and with no enzyme) [1]: 24

Molecule: CCCCCCCC[N+](CCCCCCCC)(CCCCCCCC)Cc1ccc(C[N+](CCCC)(CCCC)CCCC)cc1.[Cl-].[Cl-] [Surfactant J, 1-trioctylammoniumnmethyl-4-tributylammoniummethylbenzene dichloride]
- Rel. (S/B normalized to the results obtained with no enhancer) [1]: 1.2
- S/B (ratio of light intensities with AP and with no enzyme) [1]: 17

Molecule: CN1c2ccccc2C(C(=O)Oc2ccccc2)c2ccccc21 [phenyl 10-methylacridan-9-carboxylate, reference compound]
- effect of addition of AP on chemiluminescence ([1]; composition as Example 14 with the ester in place of 1): no effect

Molecule: O=C(O)C(O)C(O)C(=O)O (stereo not shown) [tartrate, reference compound]
- effect on light emission (inhibition of enzyme activity) ([5]; addition of 5 μL of 0.04 M tartrate in citrate buffer (0.09 M, pH 4.8)): complete extinction of light emission

Molecule: (E, Z)-9-(2,6-Dimethylphenoxy)phosphoryloxymethylidene)-3-chloro-10-methylacridan, disodium salt [Compound 4]
- S at 36 min (plateau intensity) [2, 7]: 4645

Molecule: (E,Z)-9-(Phenoxy)phosphoryloxymethylidene)-3-methoxy-10-methylacridan, disodium salt [Compound 3]
- S at 36 min (plateau intensity) [2, 7]: 5963

Molecule: (E,Z)-9-(Phenoxy)phosphoryloxymethylidene)-12-methylbenz[c]acridan, disodium salt [Compound 6]
- S at 36 min (plateau intensity) [2, 7]: 72.3

Molecule: bovine serum albumin: the protein bovine serum albumin, added to the detection reagent
- effect on duration of light emission ([5]; added to the detection reagent at 0.1%): prolonged the duration of light emission significantly

Molecule: polyoxyethylene(20)sorbitan monolaurate [Surfactant F]
- Rel. (S/B normalized to the results obtained with no enhancer) [1]: 8.6
- S/B (ratio of light intensities with AP and with no enzyme) [1]: 120
- effect on duration of chemiluminescence ([2]; TWEEN 20 1.0% to 0.001%, Reagent A with 21 μM lucigenin, lacking Na2SO3, 4×10^−16 mol AP): effective in extending the duration of chemiluminescence at or near maximum intensity
